Legend:
[1] = test system: Human colorectal adenocarcinoma cells HCT116-MTAP-KO; experiment: Mouse xenograft tumor pharmacodynamic model, HCT116-MTAP-KO; format: in vivo; details: PO 200 mg/kg once a day, 28 days of administration
Experimental: (§1) In this example, the in vivo efficacy of the compound in a mouse xenograft tumor model after intragastric (PO) administration was tested.
Human colorectal adenocarcinoma cells HCT116-MTAP-KO were cultured in monolayer in vitro under the condition of McCoy's 5A medium containing 10% fetal bovine serum and 1% penicillin and streptomycin, and the culture was carried out at 37° C. with 5% CO2. The cells were digested with trypsin three times a week for passaging. When the saturation degree of the cells was 80-90%, the cells were collected, counted and inoculated. 0.1 mL (5×10^6 cells) of HCT116-MTAP-KO cells were subcutaneously inoculated on the right back of each mouse. On day 16 after inoculation of the cells, the mean tumor volume reached 154 mm^3. The mice were randomly grouped for administration and intragastrically dosed once daily. Changes in body weight and tumor volume were recorded. After a certain number of days of administration, the experiment was ended. Tumor volume changes and mouse body weight changes were counted and analyzed. AG270 (CAS: 2201056-66-6) was the positive control compound.

[2] = test system: Human pancreatic cancer cells KP-4; experiment: Mouse xenograft tumor pharmacodynamic model, KP-4; format: in vivo; details: KP-4 xenograft, PO 200 mg/kg once a day, 29 days of administration
Experimental: as §1
Human pancreatic cancer cells KP-4 were cultured in monolayer in vitro under the condition of 1640 medium containing […] and […] and streptomycin, and the culture was carried out at 37° C. with 5% CO2. The cells were digested with trypsin three times a week for passaging. When the saturation degree of the cells was 80-90%, the cells were collected, counted and inoculated. 0.1 mL (5×10^6 cells) of KP-4 cells were subcutaneously inoculated on the right back of each mouse. On day 34 after inoculation of the cells, the mean tumor volume reached 154 mm^3. The mice were randomly grouped for administration and intragastrically dosed once daily. Changes in body weight and tumor volume were recorded. After 29 days of administration, the experiment was ended. Tumor volume changes and mouse body weight changes were counted and analyzed. AG270 (CAS: 2201056-66-6) was the positive control compound.

Substance: AG270 [reference compound]
- Tumor growth inhibition percentage (TGI) [1]: once a day TGI = 33.82%
- Tumor growth inhibition percentage (TGI) [2]: once a day TGI = 57.48%
